Test results as given in patent US7074789B2, “Kinase inhibitors” (Amgen Inc., priority 1999, dated 2006).

Assays:
Type in all cases: biochemical
[1] = molecular target: T1, IGFR-1 (Homo sapiens, UniProt P08069); assay: Kinase inhibition assay (33P transfer), IGFR-1; settings: Table 2, kinase inhibition class
T1 construct: Kinases are expressed as either kinase domains or full length constructs; made in house

[2] = molecular target: T2, AKT (Homo sapiens, UniProt Q9Y243); assay: Kinase inhibition assay (33P transfer), AKT; settings: Table 2, kinase inhibition class; read-out: AKT3-1
T2 construct: Kinases are expressed as either kinase domains or full length constructs; made in house
Procedure, shortened: (§1)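 Enzyme activity is taken as the amount of 33PO4 moved from ATP onto poly(Glu, Tyr) 4:1 or poly(Arg, Ser) 3:1 fixed to the plate surface. Unbound label is removed with 0.5% phosphoric acid before scintillation counting.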

[3] = molecular target: T3, Kdr (Homo sapiens, UniProt P35968); assay: Kinase inhibition assay (33P transfer), Kdr; settings: Table 3; read-out: KDR-1
T3 construct: Kinases are expressed as either kinase domains or full length constructs; made in house
Procedure, shortened: as §1

[4] = molecular target: T4, c-Met (Homo sapiens, UniProt P08581); assay: Kinase inhibition assay (33P transfer), c-Met; settings: Table 2, kinase inhibition class; read-out: Met-1
T4 construct: Kinases are expressed as either kinase domains or full length constructs; made in house
Procedure, shortened: (§2)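 GST/His-fusion kinases, E. coli or High Five expressed, affinity purified; 33P-ATP, plate-coated poly(Glu,Tyr) 4:1 or poly(Arg,Ser) 3:1; 0.5% H3PO4 wash, scintillant, LSC.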

[5] = molecular target: T5, Lck (Homo sapiens, UniProt P06239); assay: Kinase inhibition assay (33P transfer), Lck; settings: Table 3; read-out: Lck-1
T5 construct: Kinases are expressed as either kinase domains or full length constructs; made in house
Procedure, shortened: as §1

[6] = molecular target: T6, Zap-70 (Homo sapiens, UniProt P43403); assay: Kinase inhibition assay (33P transfer), Zap-70; settings: Table 3; read-out: Zap-1
T6 construct: Kinases are expressed as either kinase domains or full length constructs; made in house
T6 sequence (P43403 1-619): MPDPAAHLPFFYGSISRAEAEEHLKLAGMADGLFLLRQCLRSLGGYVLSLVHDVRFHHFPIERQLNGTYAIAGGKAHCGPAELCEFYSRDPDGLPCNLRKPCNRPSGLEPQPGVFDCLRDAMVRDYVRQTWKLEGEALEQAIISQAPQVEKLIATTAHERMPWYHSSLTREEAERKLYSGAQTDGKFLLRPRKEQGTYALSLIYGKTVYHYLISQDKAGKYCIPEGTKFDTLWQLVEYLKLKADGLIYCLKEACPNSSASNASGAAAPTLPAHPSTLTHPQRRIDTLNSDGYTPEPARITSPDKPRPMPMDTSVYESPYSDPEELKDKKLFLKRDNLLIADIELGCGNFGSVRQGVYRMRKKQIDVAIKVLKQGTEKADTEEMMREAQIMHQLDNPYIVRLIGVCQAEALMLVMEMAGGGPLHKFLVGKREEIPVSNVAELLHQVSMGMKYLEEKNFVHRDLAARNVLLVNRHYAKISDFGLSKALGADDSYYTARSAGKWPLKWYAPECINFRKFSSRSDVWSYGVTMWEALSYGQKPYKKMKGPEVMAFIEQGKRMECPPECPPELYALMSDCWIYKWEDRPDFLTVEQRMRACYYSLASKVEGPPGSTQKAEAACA
Procedure, shortened: as §1

[7] = molecular target: T7, Itk (Homo sapiens, UniProt Q08881); assay: Kinase inhibition assay (33P transfer), Itk; settings: Table 3; read-out: Itk-1
T7 construct: Kinases are expressed as either kinase domains or full length constructs; made in house
T7 sequence (Q08881 1-620): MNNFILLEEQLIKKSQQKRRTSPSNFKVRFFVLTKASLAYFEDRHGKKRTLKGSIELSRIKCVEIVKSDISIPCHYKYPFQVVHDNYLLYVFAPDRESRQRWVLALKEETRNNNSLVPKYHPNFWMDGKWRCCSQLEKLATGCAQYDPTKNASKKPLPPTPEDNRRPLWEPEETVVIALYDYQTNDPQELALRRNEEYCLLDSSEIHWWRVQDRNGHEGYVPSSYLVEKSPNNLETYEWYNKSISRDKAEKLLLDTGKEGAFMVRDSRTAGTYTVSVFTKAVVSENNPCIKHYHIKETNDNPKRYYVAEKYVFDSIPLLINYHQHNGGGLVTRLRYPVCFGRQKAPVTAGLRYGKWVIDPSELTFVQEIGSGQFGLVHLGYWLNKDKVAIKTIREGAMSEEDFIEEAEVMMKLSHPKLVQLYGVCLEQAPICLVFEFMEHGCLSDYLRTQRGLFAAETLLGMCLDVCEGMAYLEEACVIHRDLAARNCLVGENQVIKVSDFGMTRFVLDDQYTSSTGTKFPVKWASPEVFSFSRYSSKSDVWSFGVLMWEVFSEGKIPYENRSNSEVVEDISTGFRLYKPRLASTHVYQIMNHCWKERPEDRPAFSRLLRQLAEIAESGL
Procedure, shortened: as §2

[8] = molecular target: T8, EGFR (Homo sapiens, UniProt P00533); assay: Kinase inhibition assay (33P transfer), EGFR; settings: Table 2, kinase inhibition class; read-out: EGFR-1
T8 construct: Kinases are expressed as either kinase domains or full length constructs; made in house
Procedure, shortened: as §2

T1 sequence (P08069 31-1367): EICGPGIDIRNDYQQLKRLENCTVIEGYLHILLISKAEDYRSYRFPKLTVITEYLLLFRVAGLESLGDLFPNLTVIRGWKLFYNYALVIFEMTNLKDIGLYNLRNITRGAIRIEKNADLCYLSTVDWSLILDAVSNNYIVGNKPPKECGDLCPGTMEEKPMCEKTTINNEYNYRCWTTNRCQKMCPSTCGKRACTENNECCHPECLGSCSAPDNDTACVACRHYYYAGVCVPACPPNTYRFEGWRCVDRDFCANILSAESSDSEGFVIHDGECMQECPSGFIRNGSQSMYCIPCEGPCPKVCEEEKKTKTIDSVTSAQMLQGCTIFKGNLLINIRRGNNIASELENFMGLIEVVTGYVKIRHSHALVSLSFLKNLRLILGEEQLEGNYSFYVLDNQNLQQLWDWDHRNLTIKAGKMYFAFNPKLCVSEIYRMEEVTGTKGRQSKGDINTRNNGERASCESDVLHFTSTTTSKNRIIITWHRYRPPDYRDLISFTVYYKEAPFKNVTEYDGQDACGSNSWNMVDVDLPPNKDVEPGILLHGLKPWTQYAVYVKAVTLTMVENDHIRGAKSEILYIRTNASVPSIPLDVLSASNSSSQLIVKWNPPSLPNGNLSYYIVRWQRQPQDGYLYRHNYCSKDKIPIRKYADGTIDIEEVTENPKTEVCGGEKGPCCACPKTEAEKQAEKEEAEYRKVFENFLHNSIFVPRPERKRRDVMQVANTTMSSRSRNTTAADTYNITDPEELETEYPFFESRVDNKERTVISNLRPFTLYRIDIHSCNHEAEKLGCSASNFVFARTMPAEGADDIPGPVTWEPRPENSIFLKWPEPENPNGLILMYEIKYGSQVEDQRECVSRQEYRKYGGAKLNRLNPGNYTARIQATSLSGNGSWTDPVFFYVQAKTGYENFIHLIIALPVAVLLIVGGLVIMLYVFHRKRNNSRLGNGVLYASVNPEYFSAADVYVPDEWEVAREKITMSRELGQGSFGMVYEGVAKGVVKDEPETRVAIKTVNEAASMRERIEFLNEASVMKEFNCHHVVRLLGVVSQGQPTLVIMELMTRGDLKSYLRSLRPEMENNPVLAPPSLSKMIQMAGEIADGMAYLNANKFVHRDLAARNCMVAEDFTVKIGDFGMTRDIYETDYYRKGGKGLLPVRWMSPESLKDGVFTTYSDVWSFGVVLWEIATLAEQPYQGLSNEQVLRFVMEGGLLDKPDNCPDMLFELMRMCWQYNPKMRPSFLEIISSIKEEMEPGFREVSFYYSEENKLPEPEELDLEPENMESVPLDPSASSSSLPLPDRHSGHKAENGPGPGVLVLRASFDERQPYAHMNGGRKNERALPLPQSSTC
T3 sequence (P35968 20-1356, species assumed): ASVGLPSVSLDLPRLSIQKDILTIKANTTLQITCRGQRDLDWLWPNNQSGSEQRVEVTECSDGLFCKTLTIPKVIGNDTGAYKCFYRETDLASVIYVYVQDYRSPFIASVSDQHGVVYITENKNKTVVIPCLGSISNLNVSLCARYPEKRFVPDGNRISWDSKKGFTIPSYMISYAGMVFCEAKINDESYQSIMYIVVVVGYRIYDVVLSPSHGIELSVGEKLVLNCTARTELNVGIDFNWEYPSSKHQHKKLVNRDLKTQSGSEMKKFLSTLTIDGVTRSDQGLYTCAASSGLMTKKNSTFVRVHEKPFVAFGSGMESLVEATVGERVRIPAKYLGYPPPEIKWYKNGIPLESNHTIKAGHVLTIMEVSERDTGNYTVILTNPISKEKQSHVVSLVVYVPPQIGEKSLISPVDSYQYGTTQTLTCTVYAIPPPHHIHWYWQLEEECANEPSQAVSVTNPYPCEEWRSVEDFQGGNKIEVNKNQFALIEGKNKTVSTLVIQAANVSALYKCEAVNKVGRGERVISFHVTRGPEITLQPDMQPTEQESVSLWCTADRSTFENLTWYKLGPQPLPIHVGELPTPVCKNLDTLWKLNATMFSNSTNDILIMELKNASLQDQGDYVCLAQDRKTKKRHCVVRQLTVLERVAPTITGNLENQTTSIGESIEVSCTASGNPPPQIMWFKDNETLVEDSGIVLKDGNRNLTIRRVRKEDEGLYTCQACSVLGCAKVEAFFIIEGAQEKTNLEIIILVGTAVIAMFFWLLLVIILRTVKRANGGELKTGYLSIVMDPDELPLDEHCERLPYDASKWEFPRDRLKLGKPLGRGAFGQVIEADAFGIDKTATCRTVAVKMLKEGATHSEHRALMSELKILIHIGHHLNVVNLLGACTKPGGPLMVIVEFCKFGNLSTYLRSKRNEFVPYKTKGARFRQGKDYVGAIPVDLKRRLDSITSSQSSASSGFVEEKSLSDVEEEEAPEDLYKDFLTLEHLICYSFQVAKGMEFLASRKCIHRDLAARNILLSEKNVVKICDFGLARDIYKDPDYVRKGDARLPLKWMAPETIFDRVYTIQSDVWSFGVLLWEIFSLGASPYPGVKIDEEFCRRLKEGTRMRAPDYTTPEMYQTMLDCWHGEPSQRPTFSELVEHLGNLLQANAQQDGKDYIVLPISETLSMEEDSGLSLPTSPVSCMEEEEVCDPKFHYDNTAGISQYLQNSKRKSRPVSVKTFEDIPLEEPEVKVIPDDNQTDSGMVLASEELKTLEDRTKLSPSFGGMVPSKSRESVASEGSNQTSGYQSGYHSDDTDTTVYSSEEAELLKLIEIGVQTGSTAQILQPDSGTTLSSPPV
T5 sequence (P06239 whole entry, species assumed, the tested form may be a part): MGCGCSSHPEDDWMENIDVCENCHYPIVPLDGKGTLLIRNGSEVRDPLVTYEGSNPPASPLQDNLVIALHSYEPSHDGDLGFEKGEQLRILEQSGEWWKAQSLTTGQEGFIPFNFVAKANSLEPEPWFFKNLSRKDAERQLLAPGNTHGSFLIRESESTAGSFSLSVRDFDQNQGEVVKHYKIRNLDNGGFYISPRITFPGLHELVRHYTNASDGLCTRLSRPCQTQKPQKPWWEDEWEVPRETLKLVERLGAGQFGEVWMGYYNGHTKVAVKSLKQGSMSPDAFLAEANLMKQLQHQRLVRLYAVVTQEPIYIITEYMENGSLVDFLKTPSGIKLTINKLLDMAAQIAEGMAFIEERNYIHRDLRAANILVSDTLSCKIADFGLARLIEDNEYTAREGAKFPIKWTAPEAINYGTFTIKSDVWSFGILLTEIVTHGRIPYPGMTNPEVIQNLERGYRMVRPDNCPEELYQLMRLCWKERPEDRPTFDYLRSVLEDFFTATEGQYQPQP
T4 sequence (P08581 25-1390): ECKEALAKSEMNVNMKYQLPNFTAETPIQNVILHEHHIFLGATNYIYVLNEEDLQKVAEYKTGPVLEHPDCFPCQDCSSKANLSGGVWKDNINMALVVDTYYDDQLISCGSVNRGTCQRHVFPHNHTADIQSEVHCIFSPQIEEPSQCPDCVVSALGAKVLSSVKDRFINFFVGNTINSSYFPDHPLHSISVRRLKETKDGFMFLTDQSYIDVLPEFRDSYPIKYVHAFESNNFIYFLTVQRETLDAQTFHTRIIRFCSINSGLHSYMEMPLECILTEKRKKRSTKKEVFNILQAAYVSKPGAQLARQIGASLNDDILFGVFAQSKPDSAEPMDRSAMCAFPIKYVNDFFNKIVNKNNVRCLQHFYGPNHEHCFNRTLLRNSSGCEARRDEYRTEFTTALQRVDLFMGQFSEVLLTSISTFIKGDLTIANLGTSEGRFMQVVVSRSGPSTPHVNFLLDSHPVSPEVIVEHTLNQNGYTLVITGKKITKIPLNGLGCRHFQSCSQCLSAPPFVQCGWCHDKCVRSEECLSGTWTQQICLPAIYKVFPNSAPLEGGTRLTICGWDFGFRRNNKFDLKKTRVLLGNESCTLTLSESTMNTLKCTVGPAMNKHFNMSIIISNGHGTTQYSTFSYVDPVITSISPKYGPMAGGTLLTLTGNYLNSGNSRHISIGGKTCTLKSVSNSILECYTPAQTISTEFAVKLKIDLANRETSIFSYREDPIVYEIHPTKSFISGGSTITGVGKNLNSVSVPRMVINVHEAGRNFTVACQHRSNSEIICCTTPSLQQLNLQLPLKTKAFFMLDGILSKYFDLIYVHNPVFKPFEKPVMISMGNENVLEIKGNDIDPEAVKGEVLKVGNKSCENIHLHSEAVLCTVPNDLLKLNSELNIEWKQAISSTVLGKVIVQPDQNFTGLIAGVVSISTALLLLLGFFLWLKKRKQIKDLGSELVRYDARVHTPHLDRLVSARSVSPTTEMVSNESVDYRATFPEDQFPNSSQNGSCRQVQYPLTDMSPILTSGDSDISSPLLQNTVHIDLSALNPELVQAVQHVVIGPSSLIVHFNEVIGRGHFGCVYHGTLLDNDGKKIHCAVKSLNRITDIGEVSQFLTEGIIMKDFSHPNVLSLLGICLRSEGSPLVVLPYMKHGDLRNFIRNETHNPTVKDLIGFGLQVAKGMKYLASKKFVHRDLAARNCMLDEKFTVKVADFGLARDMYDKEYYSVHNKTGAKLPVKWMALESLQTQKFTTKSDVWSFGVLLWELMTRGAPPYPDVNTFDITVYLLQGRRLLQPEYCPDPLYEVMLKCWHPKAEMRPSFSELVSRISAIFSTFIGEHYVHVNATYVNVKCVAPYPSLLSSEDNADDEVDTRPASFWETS
T2 sequence (Q9Y243 whole entry, the tested form may be a part): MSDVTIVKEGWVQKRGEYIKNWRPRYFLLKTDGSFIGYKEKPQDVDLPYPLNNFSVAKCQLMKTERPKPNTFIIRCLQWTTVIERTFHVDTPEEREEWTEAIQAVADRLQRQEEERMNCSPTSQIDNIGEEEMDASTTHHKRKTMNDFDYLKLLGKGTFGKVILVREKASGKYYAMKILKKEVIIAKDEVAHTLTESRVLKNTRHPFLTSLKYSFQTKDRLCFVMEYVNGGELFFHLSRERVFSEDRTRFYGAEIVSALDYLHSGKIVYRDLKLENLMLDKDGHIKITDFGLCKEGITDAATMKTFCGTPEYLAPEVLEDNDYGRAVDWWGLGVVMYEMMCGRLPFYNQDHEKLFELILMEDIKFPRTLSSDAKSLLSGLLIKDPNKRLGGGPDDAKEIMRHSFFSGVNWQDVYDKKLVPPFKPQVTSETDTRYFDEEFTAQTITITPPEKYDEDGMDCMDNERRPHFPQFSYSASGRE

| SMILES | IC50 [1] | IC50 [2] | IC50 [3] | IC50 [4] | IC50 [5] | IC50 [6] | IC50 [7] | IC50 [8] |
| --- | --- | --- | --- | --- | --- | --- | --- | --- |
| COc1cc(Nc2ncnc(N3CCc4ccc([N+](=O)[O-])cc43)n2)cc(OC)c1OC [Compound 191] | > 10.6 µM | > 10.6 µM | 5.65 to 8.25 µM | > 10.6 µM | > 10.6 µM | > 10.6 µM | > 10.6 µM | > 10.6 µM |
| Fc1cccc(Nc2ncnc(-c3cccs3)n2)c1 [Compound 1073] | > 16.5 µM | > 16.5 µM | > 16.5 µM | > 16.5 µM | > 16.5 µM | > 16.5 µM | > 16.5 µM | > 16.5 µM |
| COc1cc(Nc2ncnc(N)n2)cc(OC)c1OC [Compound 925] | > 16.2 µM | > 16.2 µM | > 16.2 µM | > 16.2 µM | 1.44 to 8.66 µM | > 16.2 µM | > 16.2 µM | > 16.2 µM |
| NC(=O)c1ccc(Nc2ncnc(-c3cccs3)n2)cc1 [Compound 354] | > 15.1 µM | > 15.1 µM | > 15.1 µM | > 15.1 µM | > 15.1 µM | > 15.1 µM | > 15.1 µM | > 15.1 µM |
| CC(C)(C)OC(=O)NCCCNc1ncnc(-c2ccccc2)n1 [Compound 17] | > 13.7 µM | > 13.7 µM | > 13.7 µM | > 13.7 µM | > 13.7 µM | > 13.7 µM | > 13.7 µM | > 13.7 µM |
| Clc1cccc(Nc2ncnc(-c3cccs3)n2)c1 [Compound 360] | > 15.6 µM | > 15.6 µM | > 15.6 µM | > 15.6 µM | > 15.6 µM | > 15.6 µM | > 15.6 µM | > 15.6 µM |
| COc1cc(Nc2ncnc(-c3ccncc3)n2)cc(OC)c1OC [Compound 42] | > 13.3 µM | > 13.3 µM | 1.18 to 7.07 µM | > 13.3 µM | 1.18 to 7.07 µM | > 13.3 µM | > 13.3 µM | > 13.3 µM |
| COc1cc(Nc2ncnc(N3CCc4ccccc4C3)n2)cc(OC)c1OC [Compound 326] | > 11.4 µM | > 11.4 µM | > 11.4 µM | > 11.4 µM | > 11.4 µM | > 11.4 µM | > 11.4 µM | > 11.4 µM |
| O=[N+]([O-])c1cccc(Nc2ncnc(-c3cccs3)n2)c1 [Compound 352] | > 15 µM | > 15 µM | > 15 µM | > 15 µM | > 15 µM | > 15 µM | > 15 µM | > 15 µM |
| COc1cccc(NC(=O)Nc2ncnc(Nc3cc(OC)c(OC)c(OC)c3)n2)c1 [Compound 21] | 0.938 to 5.63 µM | > 10.6 µM | 0.938 to 5.63 µM | 8.21 to 10.6 µM | 0.938 to 5.63 µM | 8.21 to 10.6 µM | > 10.6 µM | > 10.6 µM |
| COc1cc(Nc2ncnc(-n3c(NCCO)nc4ccccc43)n2)cc(OC)c1OC [Compound 391] | > 10.3 µM | > 10.3 µM | 0.914 to 5.49 µM | > 10.3 µM | 8 to 10.3 µM | > 10.3 µM | > 10.3 µM | > 10.3 µM |
| COc1ccc(Nc2ncnc(-c3cccs3)n2)cc1OC [Compound 357] | > 14.3 µM | > 14.3 µM | > 14.3 µM | > 14.3 µM | > 14.3 µM | > 14.3 µM | > 14.3 µM | > 14.3 µM |
| Fc1ccccc1Nc1ncnc(-c2ccccc2)n1 [Compound 20] | > 16.9 µM | > 16.9 µM | > 16.9 µM | > 16.9 µM | > 16.9 µM | > 16.9 µM | > 16.9 µM | > 16.9 µM |
